Results: patent US20150057325A1, “COMPOUNDS CAPABLE OF MODULATING/PRESERVING ENDOTHELIAL INTEGRITY FOR USE IN PREVENTION OR TREATMENT OF ACUTE TRAUMATIC COAGULOPATHY AND RESUSCITATED CARDIAC ARREST” (priority 2012, published 2015)

How the values were obtained:
[1] = in vivo; cited from earlier work
[2] = human, in vivo
Procedure: Ninety-four critically ill patients admitted to the intensive care unit (ICU) underwent haemofiltration with or without concomitant Flolan (prostacycline) treatment. None of the patients were suffering from Acute Traumatic Coagulopathy nor from sequelae to cardiac arrest. Flolan was administered in a low dose in the filters to prevent these from clotting and consequently there was only a minor spill over of Flolan to the systemic circulation. The patients were retrospectively reviewed.
However, patients in the flolan group were more severely ill as evaluated by a lower platelet count at start of hemofiltration, a higher frequency of severe thrombocytopenia, a higher frequency of DIC diagnoses, a higher maximum SOFA score and a higher SOFA score at hemofiltration initiation as compared to the patients receiving non-flolan.

whole blood = assay: Whole blood viscoelastical assay (Thrombelastography, TEG) in healthy volunteers infused with flolan; type: in vivo, human; settings: 6 healthy volunteers, 4 ng/kg/min i.v., after 60 and 120 min infusion; kaolin
Procedure: Six healthy volunteers were administered flolan (Prostacycline) intravenously at a dose of 4 ng/kg/min for 2 h. Blood samples for whole blood viscoelastical assay (Thrombelastography [TEG]) and whole blood platelet aggregation (Multiplate) were obtained before infusion of Flolan, after 60 min infusion of Flolan and after 120 min infusion of Flolan. With regard to the TEG assay this was performed as recommended by the manufacturer and 340 μl are mixed with 20 μl CaCl 0.2 M (final concentration 11.1 mM in the cup) and kaolin at 37° C. after which the haemostatic activity is recorded as depicted in FIG. 1.

[3] = test system: whole blood platelet aggregation; assay: Whole blood impedance aggregometry (Multiplate) in healthy volunteers infused with flolan; type: in vivo, human; settings: 6 healthy volunteers, 4 ng/kg/min i.v., after 60 and 120 min infusion
Procedure: (§1) Six healthy volunteers were administered flolan (Prostacycline) intravenously at a dose of 4 ng/kg/min for 2 h. Blood samples for whole blood viscoelastical assay (Thrombelastography [TEG]) and whole blood platelet aggregation (Multiplate) were obtained before infusion of Flolan, after 60 min infusion of Flolan and after 120 min infusion of Flolan.
Whole blood impedance aggregometry was analyzed by the Multiple Platelet function Analyzer (MultiPlate® analyzer). Analysis employing various platelet agonists: ASPItest (activation by arachidonic acid), COLtest (activation by collagen through the collagen receptor), TRAPtest (activation by TRAP-6 stimulates the thrombin receptor on the platelet surface and ADPtest (activation by ADP stimulates platelet activation by the ADP receptors).
MultiPlate continuously records platelet aggregation. The increase of impedance by the attachment of platelets onto the Multiplate sensors is transformed to arbitrary aggregation units (AU) and plotted against time as depicted in FIG. 2.

[4] = Blood pressure and heart rate in healthy volunteers during intravenous flolan infusion; type: in vivo, human; settings: 4 ng/kg/min i.v. for 2 h, any time point
Procedure: as §1

endothelium = assay: Plasma biomarkers (ELISA) of endothelial, glycocalyx, necrosis and anticoagulation status in healthy volunteers after Flolan infusion; type: in vivo, human; settings: 8 healthy volunteers, 4 ng/kg/min i.v. for 2 h
Procedure: Eight healthy volunteers were administered Flolan® (Prostacyclin) intravenously at a dose of 4 ng/kg/min for 2 h. Blood samples were analyzed for plasma biomarkers indicative of endothelial cell (thrombomodulin, PAI-1) and glycocalyx (syndecan-1) activation and/or damage, cellular necrosis (histone-complexed DNA fragments, HMGB1) and anticoagulation (protein C, antithrombin, TFPI) at the following time points: Before the infusion (0 h), immediately after ceasing the infusion (2 h) and then 4 h, 5 h, 6 h, 8 h and 24 h after starting the infusion. The concentration of the individual biomarkers in plasma was analyzed by commercially available ELISA kits according to the manufactures recommendations. Paired t-tests with p-values <0.05 were considered significant.

CC#CCC(C)[C@H](O)/C=C/[C@@H]1[C@H]2c3cccc(CCCC(=O)O)c3O[C@H]2C[C@H]1O (mixture of isomers) [Beraprost, beraprost]
half time [1]: 35 to 40 min

CCCCC[C@H](O)/C=C/[C@@H]1[C@H]2C/C(=C/CCCC(=O)O)O[C@H]2C[C@H]1O [Flolan, epoprostenol sodium]
Platelet count (difference before vs. after haemofiltration) [2]: +14 | haemostatic competence as evaluated by transfusion requirements [2]: does not negatively influence | total transfusion requirements and specifically of FFP during hemofiltration [2]: increased | TEG values (R, Angle, MA), baseline vs. samples during infusion (whole blood): No significant difference | half time [1]: 0.5 to 3 min | Multiplate values (ASPI, COL, ADP, TRAP), baseline vs. samples during infusion [3]: no significant difference | blood pressure, change from baseline [4]: did not change | heart rate, change from baseline [4]: did not change | cell necrosis biomarker HMGB1 (endothelium): did not influence | cell necrosis biomarker histone-complexed DNA fragments (endothelium): did not influence | circulating level of PAI-1 (endothelium): declined | circulating level of TFPI (affected or not) (endothelium): did not | circulating level of antithrombin (endothelium): decreased | glycocalyx shedding (syndecan-1) (endothelium): did not induce or influence | HMGB1 at 5 h (endothelium; 5 h after starting infusion, p=0.056): tendency towards a reduction | circulating level of thrombomodulin (endothelium; effect continuing for several hours after ceasing infusion): marked decrease | circulating level of Protein C (endothelium; in the hours after ceasing infusion): decreased

CC#CCC(C)[C@H](O)/C=C/[C@@H]1[C@H]2C/C(=C/CCCC(=O)O)C[C@H]2C[C@H]1O (some centres unmarked) [Iloprost, iloprost]
half time [1]: 20 to 30 min

CCCCC[C@H](O)CC[C@@H]1[C@H]2Cc3cccc(OCC(=O)O)c3C[C@H]2C[C@H]1O [Treprostinil, treprostinil]
half time [1]: less than 4 hours
